These results are taken from US20100137267A1, “FORMULATIONS FOR TREATMENT OF ADIPOSE TISSUE, CUTANEOUS TISSUE AND DISORDERS, AND MUSCULAR TISSUE” (priority 2006, published 2010).

Entries after “also recorded” stand apart in the source; their conditions may differ.

The test system of data set [1] is cultured human adipocytes. The experiment in a line: In vitro lipolysis assay (glycerol release) in cultured adipocytes. The settings on record: for lipolysis after 18 hour incubation: Salmeterol 10^−6 M or 10^−8 M, Budesonide 10^−6 M in combination; for increase in lipolysis: relative to negative control (0.1% DMSO), Isoproterenol 10^−6 M positive control. The class given is cell-based. Here is the method: In the in vitro lipolysis assay, glycerol was detected in cell culture media via a spectrophotometric measurement after chemical oxidation with hydrogen peroxide. Glycerol was measured over a three hour time period. Levels of lipolysis in cultured human adipocytes were tested after exposure to a beta adrenergic agonist alone, a glucocorticosteroid alone, or the combination of the two for one or more preincubation periods as described in more detail below.
Human subcutaneous adipocytes were used in the lipolysis assay. Adipose tissue was harvested from liposuction or lipectomy and pre-adipocytes were isolated as follows. Briefly, fat tissue was minced and incubated at 37° C. in Krebs-Ringer bicarbonate buffer containing 1% bovine serum albumin and 0.1% collagenase in an oxygen-rich shaking chamber (5% CO2; 75 strokes/min) for 1 hour. The suspension was filtered through a 400 μm nylon mesh and centrifuged for 1 min at 100 g. The pre-adipocytes in the supernatant were washed twice with and then plated in 96 well plates at a density of cells/well. The pre-adipocytes were cultured in maintenance medium for seven days as they differentiated into adipocytes.
At −21 hours before the lipolysis assay, medium was removed from each well and replaced with 75 μl of Maintenance Medium containing appropriate drug or DMSO (vehicle) concentrations (see Experimental Design section below). Each test drug or control treatment was applied to 8 wells/group (12 treatment groups per 96-well plate). At −3 hours prior to the lipolysis assay, each well was washed two times with Wash Buffer (200 μl/wash), filled with test or control solutions made up in Assay Buffer (75 μl/well), and then incubated for three hours, i.e., until measurement of glycerol content in the Assay Buffer. For some groups, a drug was only added for the three hour incubation period (see Experimental and Control Groups Below).
The glycerol content of the Assay Buffer from each well following the incubation was used as an index for lipolysis, where an increase in glycerol indicated lipolysis. Glycerol levels were assayed colorimetrically via a commercial glycerol assay kit (Randox Laboratory, United Kingdom) and quantified by comparison to a glycerol serial dilution standard curve (3 μM-200 μM). Glycerol concentrations for each well were normalized to cell density.
In each of the following control or experimental groups n=8 corresponding to the glycerol measurements for 8 wells from a 96-well cell culture plate.

For data set [2] the following is noted: compared with albuterol 5, a short acting hydrophilic beta adrenergic agonist; cited from earlier work.
For data set [3] the following is noted: Octanol:Water; cited from earlier work.

As to `CC(C)NCC(O)c1ccc(O)c(O)c1` (stereo not drawn) [Isoproterenol, isoproterenol], the “lipolysis after 18 hour incubation” value in data set [1] (Isoproterenol 10^−6 M) is “decreased lipolysis”. In addition, the increase in lipolysis result in data set [1] (three hour incubation) is on record as “about 2.5 fold”.
Take `OCc1cc(C(O)CNCCCCCCOCCCCc2ccccc2)ccc1O` (racemic) [Salmeterol, ±2-(hydroxymethyl)-4-[1-hydroxy-2-[6-(4-phenylbutoxy)hexylamino]ethyl]-phenol]: in data set [1] (Isoproterenol 10^−6 M), the “lipolysis after 18 hour incubation” value is listed as “decreased lipolysis; also recorded: dose-dependent suppression of lipolysis”. Besides, the “lipophilicity relative to albuterol” value in data set [2] was “at least 10,000 times”.
With budesonide, the “lipolysis after 18 hour incubation” value in data set [1] (Isoproterenol 10^−6 M) is recorded as “slight suppression of lipolysis”. Moreover, in data set [1] (three hour incubation), the “induction of lipolysis in cultured adipocytes (figure legend)” value is given as “dose-dependent induction of lipolysis” and the increase in lipolysis entry is on record as “up to 1.5 fold”. The “lipolysis compared with Isoproterenol (positive control)” value in data set [1] (three hour incubation, Isoproterenol 10^−6 M, formoterol statement holds for concentrations of 10^−6 M and above) is recorded as “lower than that observed for Isoproterenol”.
As for `COc1ccc(C[C@@H](C)NC[C@H](O)c2ccc(O)c(NC=O)c2)cc1` (racemic) [Formoterol, ±N-[2-hydroxy-5-[1-hydroxy-2-[1-(4-methoxyphenyl)propan-2-ylamino]ethyl]phenyl]methanamide], the “Log P” value in data set [3] is 2-4.
